Measurements as given in US20250276089A1, “CO-DELIVERY OF INHIBITORY NUCLEIC ACIDS AND GENOME EDITORS FOR TUMOR THERAPY” (The Board of Regents of The University of Texas System, priority 2022, published 2025).

Tested on: tumor cells
Assay: mRNA delivery efficacy in tumor cells treated with an FAK inhibitor plus siCtrl+mRNA-LNPs
Format: cell-based
Conditions: co-administered with siCtrl+mRNA-LNPs

CS(=O)(=O)c1cccc(CNc2nc(Nc3ccc4c(c3)CCC(=O)N4)ncc2C(F)(F)F)c1 [FAK inhibitor, PF-573228]
mRNA delivery efficacy and protein expression: enhanced
